Results published in US10870647B2, “Imidazopyridine derivative, method for preparing same, and pharmaceutical composition containing same as active ingredient for preventing or treating cancer” (DAEGU-GYEONGBUK MEDICAL INNOVATION FOUNDATION, priority 2016, dated 2020).

Columns and labels:
Test in all cases: Kinase selectivity, scanMAX Kinase assay panel (DiscoverX), % control at 1 uM
Assay type in all cases: binding
[1] = target: T1, scanMAX Kinase assay panel (Homo sapiens, UniProt P41743); details: PRKCI; 1 uM; read-out: Percent Control (%)
T1 construct: purchased DiscoverX
T1 sequence (P41743 1-596): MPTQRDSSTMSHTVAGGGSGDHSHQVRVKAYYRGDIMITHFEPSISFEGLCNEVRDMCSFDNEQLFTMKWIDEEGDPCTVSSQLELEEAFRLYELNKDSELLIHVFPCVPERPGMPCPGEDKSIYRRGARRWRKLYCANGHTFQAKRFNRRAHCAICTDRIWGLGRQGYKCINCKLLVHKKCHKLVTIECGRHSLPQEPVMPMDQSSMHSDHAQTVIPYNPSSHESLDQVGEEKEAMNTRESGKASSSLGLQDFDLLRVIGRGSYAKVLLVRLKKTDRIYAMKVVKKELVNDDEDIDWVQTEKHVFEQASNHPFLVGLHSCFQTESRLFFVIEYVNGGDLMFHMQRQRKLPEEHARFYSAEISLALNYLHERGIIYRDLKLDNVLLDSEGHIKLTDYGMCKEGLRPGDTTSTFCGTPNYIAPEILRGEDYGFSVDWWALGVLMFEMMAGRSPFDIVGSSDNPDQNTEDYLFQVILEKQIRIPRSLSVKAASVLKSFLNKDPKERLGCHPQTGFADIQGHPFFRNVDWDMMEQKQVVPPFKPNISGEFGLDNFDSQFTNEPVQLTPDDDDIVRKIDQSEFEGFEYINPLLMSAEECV
Summary of the method: (§1)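 1 uM cpd (DMSO) per kinase; % ctrl = [cpd − pos ctrl]/[neg ctrl − pos ctrl] × 100; hit if <35.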

[2] = target: T2, scanMAX Kinase assay panel (Homo sapiens, UniProt P78362); details: SRPK2; 1 uM; read-out: Percent Control (%)
T2 construct: purchased DiscoverX
Summary of the method: as §1

[3] = target: T3, scanMAX Kinase assay panel (Homo sapiens, UniProt P15056); details: BRAF; 1 uM; read-out: Percent Control (%)
T3 construct: purchased DiscoverX
Summary of the method: as §1

[4] = target: T4, scanMAX Kinase assay panel (Homo sapiens, UniProt Q8TDR2); details: STK35; 1 uM; read-out: Percent Control (%)
T4 construct: purchased DiscoverX
Summary of the method: as §1

[5] = target: T5, scanMAX Kinase assay panel (Homo sapiens, UniProt Q32MK0); details: MLCK; 1 uM; read-out: Percent Control (%)
T5 construct: purchased DiscoverX
T5 sequence (Q32MK0 1-819): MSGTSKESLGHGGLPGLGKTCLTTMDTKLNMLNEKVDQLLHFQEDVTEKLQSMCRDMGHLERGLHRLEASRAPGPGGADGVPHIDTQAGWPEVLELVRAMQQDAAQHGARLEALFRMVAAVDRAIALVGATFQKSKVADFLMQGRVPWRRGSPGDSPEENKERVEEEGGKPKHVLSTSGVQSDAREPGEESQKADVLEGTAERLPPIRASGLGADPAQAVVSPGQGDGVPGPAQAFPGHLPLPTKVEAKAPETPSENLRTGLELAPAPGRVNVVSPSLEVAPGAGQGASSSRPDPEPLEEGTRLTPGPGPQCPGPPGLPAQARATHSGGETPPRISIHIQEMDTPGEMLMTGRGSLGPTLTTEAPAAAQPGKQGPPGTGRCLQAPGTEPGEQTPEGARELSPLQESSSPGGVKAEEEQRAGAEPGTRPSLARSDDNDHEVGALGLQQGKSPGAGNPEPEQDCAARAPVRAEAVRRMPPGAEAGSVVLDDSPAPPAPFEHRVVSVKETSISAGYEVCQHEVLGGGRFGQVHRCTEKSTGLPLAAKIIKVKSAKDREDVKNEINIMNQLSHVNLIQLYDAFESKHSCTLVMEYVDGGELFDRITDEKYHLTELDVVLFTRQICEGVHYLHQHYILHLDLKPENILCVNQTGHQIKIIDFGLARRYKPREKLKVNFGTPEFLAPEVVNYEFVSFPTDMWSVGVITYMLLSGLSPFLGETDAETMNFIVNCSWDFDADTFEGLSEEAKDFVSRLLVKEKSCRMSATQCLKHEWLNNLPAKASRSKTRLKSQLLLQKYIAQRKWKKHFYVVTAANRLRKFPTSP
Summary of the method: as §1

[6] = target: T6, scanMAX Kinase assay panel (Homo sapiens, UniProt P07949, V804L); details: RET (V804L); 1 uM; read-out: Percent Control (%)
T6 construct: purchased DiscoverX
Summary of the method: as §1

[7] = target: T7, scanMAX Kinase assay panel (Homo sapiens, UniProt P22607); details: FGFR3; 1 uM; read-out: Percent Control (%)
T7 construct: purchased DiscoverX
Summary of the method: as §1

[8] = target: T8, scanMAX Kinase assay panel (Homo sapiens, UniProt P06213); details: INSR; 1 uM; read-out: Percent Control (%)
T8 construct: purchased DiscoverX
Summary of the method: as §1

T2 sequence (P78362 whole entry): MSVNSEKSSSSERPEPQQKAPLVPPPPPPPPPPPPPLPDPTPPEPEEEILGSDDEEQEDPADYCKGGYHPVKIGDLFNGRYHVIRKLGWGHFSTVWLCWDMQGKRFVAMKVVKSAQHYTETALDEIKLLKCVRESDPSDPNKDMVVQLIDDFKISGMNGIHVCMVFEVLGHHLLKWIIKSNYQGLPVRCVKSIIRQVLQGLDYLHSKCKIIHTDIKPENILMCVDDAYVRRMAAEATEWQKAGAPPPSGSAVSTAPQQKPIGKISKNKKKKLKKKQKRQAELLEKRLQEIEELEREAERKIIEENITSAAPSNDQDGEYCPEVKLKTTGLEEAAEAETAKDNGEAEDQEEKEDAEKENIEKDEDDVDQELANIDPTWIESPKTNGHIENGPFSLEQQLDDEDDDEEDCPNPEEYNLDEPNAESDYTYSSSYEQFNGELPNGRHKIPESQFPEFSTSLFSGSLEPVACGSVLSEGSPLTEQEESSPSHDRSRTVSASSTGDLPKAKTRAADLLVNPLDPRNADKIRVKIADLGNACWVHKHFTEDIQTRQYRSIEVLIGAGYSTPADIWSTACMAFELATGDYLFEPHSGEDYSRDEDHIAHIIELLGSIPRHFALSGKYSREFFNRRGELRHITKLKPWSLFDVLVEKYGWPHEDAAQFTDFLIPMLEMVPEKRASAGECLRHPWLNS
T6 sequence (P07949 29-1114 V804L): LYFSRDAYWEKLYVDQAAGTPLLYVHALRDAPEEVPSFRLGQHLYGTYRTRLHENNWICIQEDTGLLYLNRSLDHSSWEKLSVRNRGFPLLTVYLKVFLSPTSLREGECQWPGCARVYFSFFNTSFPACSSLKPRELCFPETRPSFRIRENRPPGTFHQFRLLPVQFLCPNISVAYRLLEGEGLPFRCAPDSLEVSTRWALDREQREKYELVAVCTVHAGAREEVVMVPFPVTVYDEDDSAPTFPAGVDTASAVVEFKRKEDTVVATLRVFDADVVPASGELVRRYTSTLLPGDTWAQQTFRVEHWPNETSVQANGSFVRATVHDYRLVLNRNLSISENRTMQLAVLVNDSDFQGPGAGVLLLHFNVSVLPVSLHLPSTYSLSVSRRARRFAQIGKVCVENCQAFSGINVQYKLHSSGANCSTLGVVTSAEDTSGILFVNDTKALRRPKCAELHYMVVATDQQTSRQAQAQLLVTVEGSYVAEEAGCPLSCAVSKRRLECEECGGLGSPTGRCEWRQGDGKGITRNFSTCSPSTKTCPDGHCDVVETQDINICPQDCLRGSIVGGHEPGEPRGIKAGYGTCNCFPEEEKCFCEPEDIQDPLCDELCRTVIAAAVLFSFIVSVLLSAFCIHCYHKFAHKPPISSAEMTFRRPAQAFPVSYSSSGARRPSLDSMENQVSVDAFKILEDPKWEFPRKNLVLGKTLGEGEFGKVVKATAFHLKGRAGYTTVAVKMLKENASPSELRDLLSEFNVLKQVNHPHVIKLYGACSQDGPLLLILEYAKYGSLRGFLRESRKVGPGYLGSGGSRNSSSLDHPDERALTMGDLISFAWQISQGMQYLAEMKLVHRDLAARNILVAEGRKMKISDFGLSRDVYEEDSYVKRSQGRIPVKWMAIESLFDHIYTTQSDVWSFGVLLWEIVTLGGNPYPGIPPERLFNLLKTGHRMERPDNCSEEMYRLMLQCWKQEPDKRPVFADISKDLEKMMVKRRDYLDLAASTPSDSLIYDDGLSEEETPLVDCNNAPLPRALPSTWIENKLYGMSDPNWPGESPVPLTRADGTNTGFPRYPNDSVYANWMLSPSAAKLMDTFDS
T3 sequence (P15056 whole entry): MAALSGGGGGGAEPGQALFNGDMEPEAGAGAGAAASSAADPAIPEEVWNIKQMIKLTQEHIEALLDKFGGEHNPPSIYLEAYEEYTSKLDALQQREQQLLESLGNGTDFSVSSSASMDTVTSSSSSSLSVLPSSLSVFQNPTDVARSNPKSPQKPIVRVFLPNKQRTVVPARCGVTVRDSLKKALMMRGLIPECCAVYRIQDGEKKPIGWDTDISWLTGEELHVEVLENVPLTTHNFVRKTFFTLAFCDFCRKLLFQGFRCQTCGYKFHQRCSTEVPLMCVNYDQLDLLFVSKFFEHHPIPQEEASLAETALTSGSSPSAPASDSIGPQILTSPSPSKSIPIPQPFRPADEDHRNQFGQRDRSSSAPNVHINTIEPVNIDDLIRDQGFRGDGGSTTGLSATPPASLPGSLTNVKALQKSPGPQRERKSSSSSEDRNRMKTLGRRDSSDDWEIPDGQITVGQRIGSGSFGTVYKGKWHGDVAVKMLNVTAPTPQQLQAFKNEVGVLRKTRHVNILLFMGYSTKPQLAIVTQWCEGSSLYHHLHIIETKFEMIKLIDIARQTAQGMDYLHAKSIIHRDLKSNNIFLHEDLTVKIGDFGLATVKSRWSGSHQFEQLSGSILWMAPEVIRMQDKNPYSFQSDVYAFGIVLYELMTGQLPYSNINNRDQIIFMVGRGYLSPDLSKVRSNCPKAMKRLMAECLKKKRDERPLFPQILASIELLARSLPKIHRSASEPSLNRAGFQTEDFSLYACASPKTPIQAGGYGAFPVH
T4 sequence (Q8TDR2 whole entry): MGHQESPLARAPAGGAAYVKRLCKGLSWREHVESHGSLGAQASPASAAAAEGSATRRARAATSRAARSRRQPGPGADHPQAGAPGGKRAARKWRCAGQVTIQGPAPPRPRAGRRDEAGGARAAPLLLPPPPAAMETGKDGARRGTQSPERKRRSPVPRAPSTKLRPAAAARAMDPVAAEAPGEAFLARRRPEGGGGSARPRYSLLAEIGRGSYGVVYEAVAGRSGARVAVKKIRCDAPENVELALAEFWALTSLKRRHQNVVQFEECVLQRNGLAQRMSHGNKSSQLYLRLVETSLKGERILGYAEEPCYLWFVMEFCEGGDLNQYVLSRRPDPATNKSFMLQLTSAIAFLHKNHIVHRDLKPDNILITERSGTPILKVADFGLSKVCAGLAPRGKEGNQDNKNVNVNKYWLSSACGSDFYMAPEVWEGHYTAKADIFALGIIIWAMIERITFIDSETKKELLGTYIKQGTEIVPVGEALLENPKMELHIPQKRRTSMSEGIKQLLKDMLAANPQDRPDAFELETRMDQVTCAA
T8 sequence (P06213 28-1382): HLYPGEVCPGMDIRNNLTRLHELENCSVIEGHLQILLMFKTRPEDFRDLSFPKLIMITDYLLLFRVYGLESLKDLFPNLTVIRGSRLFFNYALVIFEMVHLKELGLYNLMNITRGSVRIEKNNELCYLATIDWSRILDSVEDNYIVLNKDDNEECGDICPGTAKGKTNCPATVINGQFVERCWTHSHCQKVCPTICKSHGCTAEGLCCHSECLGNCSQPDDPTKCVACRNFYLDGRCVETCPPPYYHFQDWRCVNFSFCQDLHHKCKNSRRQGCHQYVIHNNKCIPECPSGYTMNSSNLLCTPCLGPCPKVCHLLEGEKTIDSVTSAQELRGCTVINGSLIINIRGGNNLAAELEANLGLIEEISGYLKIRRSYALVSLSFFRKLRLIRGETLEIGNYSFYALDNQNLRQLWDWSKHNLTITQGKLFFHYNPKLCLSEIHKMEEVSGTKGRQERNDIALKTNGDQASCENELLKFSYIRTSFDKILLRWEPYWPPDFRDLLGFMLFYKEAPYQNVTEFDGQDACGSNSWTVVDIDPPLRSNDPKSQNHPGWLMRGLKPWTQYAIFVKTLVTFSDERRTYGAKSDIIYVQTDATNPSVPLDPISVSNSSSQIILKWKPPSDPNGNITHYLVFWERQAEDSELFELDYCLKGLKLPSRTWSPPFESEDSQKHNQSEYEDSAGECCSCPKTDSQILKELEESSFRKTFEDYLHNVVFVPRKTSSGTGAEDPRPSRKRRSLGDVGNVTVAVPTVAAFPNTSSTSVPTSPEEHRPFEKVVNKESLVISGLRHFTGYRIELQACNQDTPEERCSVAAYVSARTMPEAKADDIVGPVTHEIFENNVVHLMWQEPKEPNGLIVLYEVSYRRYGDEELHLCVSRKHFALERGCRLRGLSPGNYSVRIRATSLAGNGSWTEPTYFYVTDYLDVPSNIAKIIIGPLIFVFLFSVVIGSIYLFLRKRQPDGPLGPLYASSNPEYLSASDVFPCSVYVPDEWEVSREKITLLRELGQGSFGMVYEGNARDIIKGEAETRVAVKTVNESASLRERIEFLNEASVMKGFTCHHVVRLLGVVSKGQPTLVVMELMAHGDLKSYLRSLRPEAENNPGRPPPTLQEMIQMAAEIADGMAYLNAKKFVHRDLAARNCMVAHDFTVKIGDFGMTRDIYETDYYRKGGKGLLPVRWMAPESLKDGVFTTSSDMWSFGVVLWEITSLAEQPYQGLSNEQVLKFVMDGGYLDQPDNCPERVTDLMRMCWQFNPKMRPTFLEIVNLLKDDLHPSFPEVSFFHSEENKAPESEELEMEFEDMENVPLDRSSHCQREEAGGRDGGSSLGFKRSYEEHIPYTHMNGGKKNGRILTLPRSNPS

Compound Cc1ccc(C(=O)Nc2ccc(CN3CCN(C)CC3)c(C(F)(F)F)c2)cc1C#Cc1cnc2c(Nc3cnn(C)c3)cccn12 [Example 1, 4-methyl-3-((8-((1-methyl-1H-pyrazol-4-yl)amino)imidazo[1,2-a]pyridin-3-yl)ethynyl)-N-(4-((4-methylpiperazin-1-yl)methyl)-3-(trifluoromethyl)phenyl)benzamide] has a remaining binding at 1 µM [1] of 51%, a remaining binding at 1 µM [2] of 97% and a remaining binding at 1 µM [3] of 18%. The remaining binding at 1 µM [4] was 33%, the remaining binding at 1 µM [5] was 90% and the remaining binding at 1 µM [6] was 0%. The remaining binding at 1 µM [7] was 3% and the remaining binding at 1 µM [8] was 54%.
Compound Cc1cn(-c2cc(NC(=O)c3ccc(C)c(C#Cc4cnc5c(Nc6cnn(C)c6)cccn45)c3)cc(C(F)(F)F)c2)cn1 [Example 12, 4-methyl-N-(3-(4-methyl-1H-imidazol-1-yl)-5-(trifluoromethyl)phenyl)-3-((8-((1-methyl-1H-pyrazol-4-yl)amino)imidazo[1,2-a]pyridin-3-yl)ethynyl)benzamide] has a remaining binding at 1 µM [1] of 66%, a remaining binding at 1 µM [2] of 87% and a remaining binding at 1 µM [3] of 80%. The remaining binding at 1 µM [4] was 58%, the remaining binding at 1 µM [5] was 91% and the remaining binding at 1 µM [6] was 2%. It also gave a remaining binding at 1 µM [7] of 33% and a remaining binding at 1 µM [8] of 99%.
Cc1ccc(NC(=O)C2(C(=O)Nc3ccc(F)cc3)CC2)cc1C#Cc1cnc2c(Nc3cnn(C(C)C)c3)cccn12 [Example 78] showed a remaining binding at 1 µM [1] of 69%, a remaining binding at 1 µM [2] of 100% and a remaining binding at 1 µM [3] of 100%. The remaining binding at 1 µM [4] was 100%, the remaining binding at 1 µM [5] was 100% and the remaining binding at 1 µM [6] was 100%. The remaining binding at 1 µM [7] was 100% and the remaining binding at 1 µM [8] was 100%.
